Experimental data taken from patent publication US9346815B2, “5-chloro-2-difluoromethoxyphenyl pyrazolopyrimidine compounds, compositions and methods of use thereof” (Genentech, Inc., priority 2014, dated 2016).
pKi: −log10 of the molar value.

Tests used:
[1] = molecular target: isolated recombinant JAK1 kinase domain (Homo sapiens (Human), UniProt P23458); assay: JAK1 enzyme assay (Caliper LabChip, peptide phosphorylation); assay type: biochemical; settings: isolated recombinant JAK1 kinase domain, 25 μM ATP
[2] = system: JAK1-dependent STAT6 phosphorylation downstream of IL-13 stimulation in BEAS-2B human bronchial epithelial cells; assay: JAK1 pathway assay in BEAS-2B cells (IL-13-pSTAT6, MSD); assay type: cell-based; settings: read-out: IL13-pSTAT6 EC50 (uM)_BEAS-2B
Outline: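 TF-1 cells starved of GM-CSF overnight, assayed serum-free; BEAS-2B cells in complete growth medium. Lysate pSTAT6 measured by MSD; EC50 derived.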

[3] = molecular target: isolated recombinant JAK2 kinase domain (Homo sapiens (Human), UniProt O60674); assay: JAK2 enzyme assay (Caliper LabChip, peptide phosphorylation); assay type: biochemical; settings: 25 μM ATP
isolated recombinant JAK2 kinase domain, sequence (O60674 849-1124): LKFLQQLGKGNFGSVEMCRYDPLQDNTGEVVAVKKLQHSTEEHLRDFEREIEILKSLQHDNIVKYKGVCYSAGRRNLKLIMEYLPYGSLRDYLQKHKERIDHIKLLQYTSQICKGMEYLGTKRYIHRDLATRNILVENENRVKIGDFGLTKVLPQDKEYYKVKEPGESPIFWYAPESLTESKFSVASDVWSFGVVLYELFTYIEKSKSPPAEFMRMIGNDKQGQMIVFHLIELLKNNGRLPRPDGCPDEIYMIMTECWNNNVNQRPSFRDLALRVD

isolated recombinant JAK1 kinase domain, sequence (P23458 875-1153): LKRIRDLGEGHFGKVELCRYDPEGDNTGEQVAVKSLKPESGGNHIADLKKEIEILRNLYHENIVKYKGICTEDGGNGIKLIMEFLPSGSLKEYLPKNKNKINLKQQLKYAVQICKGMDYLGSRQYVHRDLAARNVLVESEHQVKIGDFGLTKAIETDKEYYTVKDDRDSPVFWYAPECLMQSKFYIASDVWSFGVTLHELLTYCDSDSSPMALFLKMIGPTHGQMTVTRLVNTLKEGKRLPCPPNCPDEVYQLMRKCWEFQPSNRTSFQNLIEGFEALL

SMILES	pKi [1]	EC50 [2]	pKi [3]
CC(c1ccccc1)N1CCN(C(=O)Cn2cc(NC(=O)c3cnn4cccnc34)c(-c3cc(Cl)ccc3OC(F)F)n2)CC1 (stereo not drawn) [Example 316, N-[3-[5-chloro-2-(difluoromethoxy)phenyl]-1-[2-oxo-2-[4-(1-phenylethyl)piperazin-1-yl]ethyl]-1H-pyrazol-4-yl]pyrazolo[1,5-a]pyrimidine-3-carboxamide]	9.32	0.142 µM	8.98
CN1CCC(COC(=O)C2(C)CCN(C(=O)Cn3cc(NC(=O)c4cnn5cccnc45)c(-c4cc(Cl)ccc4OC(F)F)n3)CC2)CC1 [Example 389, (1-methylpiperidin-4-yl)methyl 1-(2-[3-[5-chloro-2-(difluoromethoxy)phenyl]-4-[pyrazolo[1,5-a]pyrimidine-3-amido]-1H-pyrazol-1-yl]acetyl)-4-methylpiperidine-4-carboxylate]	9.40	0.0175 µM	8.67
O=C(Nc1cn(CC(=O)N2CCN(CCN3CCSCC3)CC2)nc1-c1cc(Cl)ccc1OC(F)F)c1cnn2cccnc12 [Example 460, N-(3-(5-chloro-2-(difluoromethoxy)phenyl)-1-(2-oxo-2-(4-(2-thiomorpholinoethyl)piperazin-1-yl)ethyl)-1H-pyrazol-4-yl)pyrazolo[1,5-a]pyrimidine-3-carboxamide]	9.41	0.0068 µM	8.96
O=C(Nc1cn(CC(=O)N2CCC(C(=O)OCC3CCNCC3)CC2)nc1-c1cc(Cl)ccc1OC(F)F)c1cnn2cccnc12 [Example 341, piperidin-4-ylmethyl 1-(2-[3-[5-chloro-2-(difluoromethoxy)phenyl]-4-[pyrazolo[1,5-a]pyrimidine-3-amido]-1H-pyrazol-1-yl]acetyl)piperidine-4-carboxylate]	9.28	0.534 µM	8.58
O=C1CC(N2CCN(C(=O)Cn3cc(NC(=O)c4cnn5cccnc45)c(-c4cc(Cl)ccc4OC(F)F)n3)CC2)CCO1 (stereo not drawn) [Example 347, N-[3-[5-chloro-2-(difluoromethoxy)phenyl]-1-[2-oxo-2-[4-(2-oxooxan-4-yl)piperazin-1-yl]ethyl]-1H-pyrazol-4-yl]pyrazolo[1,5-a]pyrimidine-3-carboxamide]	9.41	0.0307 µM	9.12
CNC(=O)CN1CCN(C(=O)Cn2cc(NC(=O)c3cnn4cccnc34)c(-c3cc(Cl)ccc3OC(F)F)n2)CC1 [Example 383, N-[3-[5-chloro-2-(difluoromethoxy)phenyl]-1-(2-[4-[(methylcarbamoyl)methyl]piperazin-1-yl]-2-oxoethyl)-1H-pyrazol-4-yl]pyrazolo[1,5-a]pyrimidine-3-carboxamide]	9.41	0.277 µM	9.18
O=C(Nc1cn(CCN[C@H]2CCOC2)nc1-c1cc(Cl)ccc1OC(F)F)c1cnn2cccnc12 [Example 399, N-(3-(5-chloro-2-(difluoromethoxy)phenyl)-1-(2-((S)-tetrahydrofuran-3-ylamino)ethyl)-1H-pyrazol-4-yl)pyrazolo[1,5-a]pyrimidine-3-carboxamide]	9.05	0.0232 µM	9.41
O=C(Nc1cn(CCNCc2ccccn2)nc1-c1cc(Cl)ccc1OC(F)F)c1cnn2cccnc12 [Example 314, N-[3-[5-chloro-2-(difluoromethoxy)phenyl]-1-[2-[(pyridin-2-ylmethyl)amino]ethyl]-1H-pyrazol-4-yl]pyrazolo[1,5-a]pyrimidine-3-carboxamide]	9.21	0.0995 µM	9.41
CN(CCCC#N)C1CCN(C(=O)Cn2cc(NC(=O)c3cnn4cccnc34)c(-c3cc(Cl)ccc3OC(F)F)n2)CC1 [Example 464, N-(3-(5-chloro-2-(difluoromethoxy)phenyl)-1-(2-(4-((3-cyanopropyl)(methyl)amino)piperidin-1-yl)-2-oxoethyl)-1H-pyrazol-4-yl)pyrazolo[1,5-a]pyrimidine-3-carboxamide]	9.31	0.0095 µM	8.85
CNC(=O)[C@@H]1CCCN1C1CCN(C(=O)Cn2cc(NC(=O)c3cnn4cccnc34)c(-c3cc(Cl)ccc3OC(F)F)n2)CC1 [Example 426, N-(3-(5-chloro-2-(difluoromethoxy)phenyl)-1-(2-(4-((S)-2-(methyl-carbamoyl)pyrrolidin-1-yl)piperidin-1-yl)-2-oxoethyl)-1H-pyrazol-4-yl)pyrazolo[1,5-a]pyrimidine-3-carboxamide]	9.28	0.0394 µM	8.90
CC(C#N)CN(C)C1CCN(C(=O)Cn2cc(NC(=O)c3cnn4cccnc34)c(-c3cc(Cl)ccc3OC(F)F)n2)CC1 (stereo not drawn) [Example 413, N-(3-(5-chloro-2-(difluoromethoxy)phenyl)-1-(2-(4-((2-cyanopropyl) (methyl)amino)piperidin-1-yl)-2-oxoethyl)-1H-pyrazol-4-yl)pyrazolo[1,5-a]pyrimidine-3-carboxamide]	9.60	0.0209 µM	9.13
CN(C)C(=O)[C@@H]1CCCN1CC1CCN(C(=O)Cn2cc(NC(=O)c3cnn4cccnc34)c(-c3cc(Cl)ccc3OC(F)F)n2)CC1 [Example 423, N-(3-(5-chloro-2-(difluoromethoxy)phenyl)-1-(2-(4-(((S)-2-(dimethylcarbamoyl)pyrrolidin-1-yl)methyl)piperidin-1-yl)-2-oxoethyl)-1H-pyrazol-4-yl)pyrazolo[1,5-a]pyrimidine-3-carboxamide]	9.14	0.0312 µM	8.55
N#CC1CCN(C2CCN(C(=O)Cn3cc(NC(=O)c4cnn5cccnc45)c(-c4cc(Cl)ccc4OC(F)F)n3)CC2)CC1 [Example 462, N-(3-(5-chloro-2-(difluoromethoxy)phenyl)-1-(2-(4-cyano-1,4′-bipiperidin-1′-yl)-2-oxoethyl)-1H-pyrazol-4-yl)pyrazolo[1,5-a]pyrimidine-3-carboxamide]	9.42	0.0108 µM	9.07
O=C(Nc1cn(CC(=O)N2CCC(N3CCCOCC3)CC2)nc1-c1cc(Cl)ccc1OC(F)F)c1cnn2cccnc12 [Example 441, N-(1-(2-(4-(1,4-oxazepan-4-yl)piperidin-1-yl)-2-oxoethyl)-3-(5-chloro-2-(difluoromethoxy)phenyl)-1H-pyrazol-4-yl)pyrazolo[1,5-a]pyrimidine-3-carboxamide]	9.28	0.0084 µM	8.83
CN1CCN(C(=O)Cn2cc(NC(=O)c3cnn4cccnc34)c(-c3cc(Cl)ccc3OC(F)F)n2)CC1(C)C [Example 378, N-[3-[5-chloro-2-(difluoromethoxy)phenyl]-1-[2-oxo-2-(3,3,4-trimethylpiperazin-1-yl)ethyl]-1H-pyrazol-4-yl]pyrazolo[1,5-a]pyrimidine-3-carboxamide]	9.03	0.0874 µM	8.80
O=C1CCC(CNCCn2cc(NC(=O)c3cnn4cccnc34)c(-c3cc(Cl)ccc3OC(F)F)n2)O1 (stereo not drawn) [Example 381, N-[3-[5-chloro-2-(difluoromethoxy)phenyl]-1-(2-[[(5-oxooxolan-2-yl)methyl]amino]ethyl)-1H-pyrazol-4-yl]pyrazolo[1,5-a]pyrimidine-3-carboxamide]	8.97	0.0298 µM	9.26
O=C1CN(C2CCN(C(=O)Cn3cc(NC(=O)c4cnn5cccnc45)c(-c4cc(Cl)ccc4OC(F)F)n3)CC2)CCN1 [Example 407, N-(3-(5-chloro-2-(difluoromethoxy)phenyl)-1-(2-oxo-2-(4-(3-oxopiperazin-1-yl)piperidin-1-yl)ethyl)-1H-pyrazol-4-yl)pyrazolo[1,5-a]pyrimidine-3-carboxamide]	9.44	0.172 µM	9.15
CC1(C(=O)OCCN2CCOCC2)CCN(C(=O)Cn2cc(NC(=O)c3cnn4cccnc34)c(-c3cc(Cl)ccc3OC(F)F)n2)CC1 [Example 339, 2-(morpholin-4-yl)ethyl1-(2-[3-[5-chloro-2-(difluoromethoxy)phenyl]-4-[pyrazolo[1,5-a]pyrimidine-3-amido]-1H-pyrazol-1-yl]acetyl)-4-methylpiperidine-4-carboxylate]	9.39	0.0094 µM	9.00
COC(=O)[C@@H](N)CCn1cc(NC(=O)c2cnn3cccnc23)c(-c2cc(Cl)ccc2OC(F)F)n1 [Example 387, methyl (2S)-2-amino-4-[3-[5-chloro-2-(difluoromethoxy)phenyl]-4-[pyrazolo[1,5-a]pyrimidine-3-amido]-1H-pyrazol-1-yl]butanoate]	8.91	0.0107 µM	9.34
CCOC(=O)CN1CCC(n2cc(NC(=O)c3cnn4cccnc34)c(-c3cc(Cl)ccc3OC(F)F)n2)CC1 [Example 366, ethyl 2-(4-[3-[5-chloro-2-(difluoromethoxy)phenyl]-4-[pyrazolo[1,5-a]pyrimidine-3-amido]-1H-pyrazol-1-yl]piperidin-1-yl)acetate]	8.97	0.312 µM	9.00
O=C(Nc1cn(CC(=O)N2CCC(N3CCOCC3)CC2)nc1-c1cc(Cl)ccc1OC(F)F)c1cnn2cccnc12 [Example 393, N-[3-[5-chloro-2-(difluoromethoxy)phenyl]-1-[2-[4-(morpholin-4-yl)piperidin-1-yl]-2-oxoethyl]-1H-pyrazol-4-yl]pyrazolo[1,5-a]pyrimidine-3-carboxamide]	9.42	0.0115 µM	9.05
CC(C)CN1CCN(C(=O)Cn2cc(NC(=O)c3cnn4cccnc34)c(-c3cc(Cl)ccc3OC(F)F)n2)CC1 [Example 317, N-[3-[5-chloro-2-(difluoromethoxy)phenyl]-1-[2-[4-(2-methylpropyl)piperazin-1-yl]-2-oxoethyl]-1H-pyrazol-4-yl]pyrazolo[1,5-a]pyrimidine-3-carboxamide]	9.19	0.0229 µM	8.94
